Experimental data as given in patent publication US7342027B2 (Yuhan Corporation, priority 2002, dated 2008).

Molecular target: T1, Recombinant human cathepsin K (Homo sapiens, UniProt P43235)
T1 construct: made in house
T1 sequence (P43235 115-329): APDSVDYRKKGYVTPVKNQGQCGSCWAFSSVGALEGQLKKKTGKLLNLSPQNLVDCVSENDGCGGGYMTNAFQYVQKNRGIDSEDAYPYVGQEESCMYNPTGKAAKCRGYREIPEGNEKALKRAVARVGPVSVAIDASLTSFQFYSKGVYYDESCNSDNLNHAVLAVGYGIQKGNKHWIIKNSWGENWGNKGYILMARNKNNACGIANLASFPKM
Experiment: Inhibition of cathepsin K activity (Z-Phe-Arg-AMC fluorescence assay)
Type: biochemical
Conditions: 25 uM Z-Phe-Arg-AMC, pH 5.5, 1 hour at 37° C.
Description: Test 1: Inhibition of Cathepsin K Activity
Recombinant human cathepsin K was prepared in accordance with Biol, Pharm. Bull, 19(8), 1026-1031 (1996) and J. Biol. Chem. 271, 2126-2132 (1996). Stock solutions of 2.5 mM Z-Phe-Arg-AMC (BACHEM, 1-1160) and all inhibitors were prepared in dimethyl sulfoxide. In vitro assays for cathepsin K were conducted with 25 uM Z-Phe-Arg-AMC as a substrate at pH 5.5 in 100 mM Na acetate buffer containing 20 mM cysteine and 5 mM EDTA in the presence of 2% final concentration of DMSO. Reaction was initiated by the addition of enzyme to samples, which were then incubated for 1 hour at 37° C. The fluorescence was monitored at 460 nm (excitation wavelength 360 nm) using fluorescence plate reader.
The concentrations of the test compounds, which inhibit 50% of cathepsin K activity, are represented as IC50 in Table 1.

| Structure (SMILES) | IC50 |
| --- | --- |
| O=C(CCc1ccccc1)Nc1ccccc1N1CCC(NC(=O)C2(NC(=O)c3cc4ccccc4o3)CCCCC2)C(=O)C1 (centres unmarked) [Example 54, 4-[N-[1-[N-(benzofuran-2-ylcarbonyl)amino]cyclohexanecarbonyl]amino]-1-[2-[N-(3-phenylpropionyl)amino]phenyl]piperidin-3-one] | 6.09 nM |
| CS(=O)(=O)c1c(F)cccc1N1CCC(NC(=O)C2(NC(=O)c3ccco3)CCCCC2)C(=O)C1 (centres unmarked) [Example 77, 4-[N-[1-[N-(furan-2-ylcarbonyl)amino]cyclohexanecarbonyl]amino]-1-(3-fluoro-2-methylsulfonylphenyl)piperidin-3-one] | 5.97 nM |
| CSc1cc(F)ccc1N1CCC(NC(=O)C2(NC(=O)c3ccco3)CCCCC2)C(=O)C1 (centres unmarked) [Example 85, 4-[N-[1-[N-(furan-2-ylcarbonyl)amino]cyclohexanecarbonyl]amino]-1-(4-fluoro-2-thiomethoxyphenyl)piperidin-3-one] | 10.4 nM |
| CC1(C)CN(c2cc(F)ccc2N2CCC(NC(=O)C3(NC(=O)c4ccco4)CCCCC3)C(=O)C2)C1=O (centres unmarked) [Example 92, 4-[N-[1-[N-(furan-2-ylcarbonyl)amino]cyclohexanecarbonyl]amino]-1-[4-fluoro-2-(3,3-dimethylazetidin-2-one-1-yl)phenyl]piperidin-3-one] | 1.45 nM |
| O=C(NC1(C(=O)NC2CCN(c3ccc(F)cc3N3CCCC3=O)CC2=O)CCCCC1)c1ccco1 (centres unmarked) [Example 95, 4-[N-[1-[N-(furan-2-ylcarbonyl)amino]cyclohexanecarbonyl]amino]-1-[4-fluoro-2-(pyrrolidin-2-one-1-yl)phenyl]piperidin-3-one] | 10.8 nM |
| O=C(NC1(C(=O)NC2CCN(c3ccc(F)cc3-n3cccc3)CC2=O)CCCCC1)c1ccco1 (centres unmarked) [Example 99, 4-[N-[1-[N-(furan-2-ylcarbonyl)amino]cyclohexanecarbonyl]amino]-1-[4-fluoro-2-(pyrrol-1-yl)phenyl]piperidin-3-one] | 4.41 nM |
| Cc1cc(C(=O)NC2(C(=O)NC3CCN(c4ccccc4S(C)(=O)=O)CC3=O)CCCCC2)no1 (centres unmarked) [Example 106, 4-[N-[1-[N-(5-methyl-isoxazol-3-ylcarbonyl)amino]cyclohexanecarbonyl]amino]-1-(2-methanesulfonylphenyl)piperidin-3-one] | 19.9 nM |
| CCS(=O)(=O)c1ccccc1N1CCC(NC(=O)C2(NC(=O)c3cc(C)on3)CCCCC2)C(=O)C1 (centres unmarked) [Example 107, 4-[N-[1-[N-(5-methyl-isoxazol-3-ylcarbonyl)amino]cyclohexanecarbonyl]amino]-1-(2-ethanesulfonylphenyl)piperidin-3-one] | 8.07 nM |
| CS(=O)(=O)c1ccccc1N1CCC(NC(=O)C2(NC(=O)c3ccc(Cl)s3)CCCCC2)C(=O)C1 (centres unmarked) [Example 114, 4-[N-[1-[N-(5-chloro-thiophen-2-ylcarbonyl)amino]cyclohexanecarbonyl]amino]-1-(2-methanesulfonylphenyl)piperidin-3-one] | 1.93 nM |
| CC(C)S(=O)(=O)c1ccccc1N1CCC(NC(=O)C2(NC(=O)c3ccc(Cl)s3)CCCCC2)C(=O)C1 (centres unmarked) [Example 116, 4-[N-[1-[N-(5-chloro-thiophen-2-ylcarbonyl)amino]cyclohexanecarbonyl]amino]-1-(2-isopropanesulfonylphenyl)piperidin-3-one] | 2.35 nM |
| CS(=O)(=O)c1ccc(F)cc1N1CCC(NC(=O)C2(NC(=O)c3ccc(Cl)s3)CCCCC2)C(=O)C1 (centres unmarked) [Example 117, 4-[N-[1-[N-(5-chloro-thiophen-2-ylcarbonyl)amino]cyclohexanecarbonyl]amino]-1-(5-fluoro-2-methanesulfonylphenyl)piperidin-3-one] | 2.13 nM |
| Cc1ccsc1C(=O)NC1(C(=O)NC2CCN(c3ccccc3S(C)(=O)=O)CC2=O)CCCCC1 (centres unmarked) [Example 121, 4-[N-[1-[N-(3-methyl-thiophen-2-ylcarbonyl)amino]cyclohexanecarbonyl]amino]-1-(2-methanesulfonylphenyl)piperidin-3-one] | 7.73 nM |
| Cc1occc1C(=O)NC1(C(=O)NC2CCN(c3ccccc3S(C)(=O)=O)CC2=O)CCCCC1 (centres unmarked) [Example 122, 4-[N-[1-[N-(2-methyl-furan-3-ylcarbonyl)amino]cyclohexanecarbonyl]amino]-1-(2-methanesulfonylphenyl)piperidin-3-one] | 3.87 nM |
| Cc1ccc(C(=O)NC2(C(=O)NC3CCN(c4ccccc4S(C)(=O)=O)CC3=O)CCCCC2)o1 (centres unmarked) [Example 123, 4-[N-[1-[N-(5-methyl-furan-2-ylcarbonyl)amino]cyclohexanecarbonyl]amino]-1-(2-methanesulfonylphenyl)piperidin-3-one] | 4.97 nM |

Second part, the molecule after the results:

| IC50 | Structure (SMILES) |
| --- | --- |
| 7.73 nM | CC(C)Oc1ccccc1N1CCC(NC(=O)C2(NC(=O)c3cc4ccccc4o3)CCCCC2)C(=O)C1 (centres unmarked) [Example 41, 4-[N-[1-[N-(benzofuran-2-ylcarbonyl)amino]cyclohexanecarbonyl]amino]-1-(2-isopropoxyphenyl)piperidin-3-one] |
| 3.87 nM | CCSc1ccccc1N1CCC(NC(=O)C2(NC(=O)c3cc4ccccc4o3)CCCCC2)C(=O)C1 (centres unmarked) [Example 42, 4-[N-[1-[N-(benzofuran-2-ylcarbonyl)amino]cyclohexanecarbonyl]amino]-1-(2-ethylthiophenyl)piperidin-3-one] |
| 4.97 nM | CC1(C)CN(c2ccccc2N2CCC(NC(=O)C3(NC(=O)c4cc5ccccc5o4)CCCCC3)C(=O)C2)C1=O (centres unmarked) [Example 43, 4-[N-[1-[N-(benzofuran-2-ylcarbonyl)amino]cyclohexanecarbonyl]amino]-1-[2-(3,3-dimethylazetidin-2-one-1-yl)phenyl]piperidin-3-one] |
| 6.8 nM | O=C(NC1(C(=O)NC2CCN(c3ccccc3N3CCCCC3=O)CC2=O)CCCCC1)c1cc2ccccc2o1 (centres unmarked) [Example 45, 4-[N-[1-[N-(benzofuran-2-ylcarbonyl)amino]cyclohexanecarbonyl]amino]-1-[2-(piperidin-2-one-1-yl)phenyl]piperidin-3-one] |
| 0.67 nM | CCOC(=O)Nc1ccccc1N1CCC(NC(=O)C2(NC(=O)c3cc4ccccc4o3)CCCCC2)C(=O)C1 (centres unmarked) [Example 48, 4-[N-[1-[N-(benzofuran-2-ylcarbonyl)amino]cyclohexanecarbonyl]amino]-1-[2-[N-(ethoxycarbonyl)amino]phenyl]piperidin-3-one] |
| 0.45 nM | COC(=O)Nc1ccccc1N1CCC(NC(=O)C2(NC(=O)c3cc4ccccc4o3)CCCCC2)C(=O)C1 (centres unmarked) [Example 49, 4-[N-[1-[N-(benzofuran-2-ylcarbonyl)amino]cyclohexanecarbonyl]amino]-1-[2-[N-(methoxycarbonyl)amino]phenyl]piperidin-3-one] |
| 1.2 nM | O=C(CCCCl)Nc1ccccc1N1CCC(NC(=O)C2(NC(=O)c3cc4ccccc4o3)CCCCC2)C(=O)C1 (centres unmarked) [Example 50, 4-[N-[1-[N-(benzofuran-2-ylcarbonyl)amino]cyclohexanecarbonyl]amino]-1-[2-[N-(4-chlorobutyryl)amino]phenyl]piperidin-3-one] |
| 4.11 nM | CC(C)C(=O)Nc1ccccc1N1CCC(NC(=O)C2(NC(=O)c3cc4ccccc4o3)CCCCC2)C(=O)C1 (centres unmarked) [Example 51, 4-[N-[1-[N-(benzofuran-2-ylcarbonyl)amino]cyclohexanecarbonyl]amino]-1-[2-[N-(isobutyryl)amino]phenyl]piperidin-3-one] |
| 1.22 nM | O=C(NC1(C(=O)NC2CCN(c3ccccc3NC(=O)C3CC3)CC2=O)CCCCC1)c1cc2ccccc2o1 (centres unmarked) [Example 53, 4-[N-[1-[N-(benzofuran-2-ylcarbonyl)amino]cyclohexanecarbonyl]amino]-1-[2-[N-(cyclopropanecarbonyl)amino]phenyl]piperidin-3-one] |
| 1.62 nM | CC(=O)Nc1ccccc1N1CCC(NC(=O)C2(NC(=O)c3cc4ccccc4o3)CCCCC2)C(=O)C1 (centres unmarked) [Example 56, 4-[N-[1-[N-(benzofuran-2-ylcarbonyl)amino]cyclohexanecarbonyl]amino]-1-[2-[N-(acetyl)amino]phenyl]piperidin-3-one] |
| 4.82 nM | O=C(NC1(C(=O)NC2CCN(c3ccccc3-n3cnnn3)CC2=O)CCCCC1)c1cc2ccccc2o1 (centres unmarked) [Example 58, 4-[N-[1-[N-(benzofuran-2-ylcarbonyl)amino]cyclohexanecarbonyl]amino]-1-[2-(tetrazol-1-yl)phenyl]piperidin-3-one] |
| 4.77 nM | O=C(NC1(C(=O)NC2CCN(c3ccccc3-c3nnn[nH]3)CC2=O)CCCCC1)c1cc2ccccc2o1 (centres unmarked) [Example 67, 4-[N-[1-[N-(benzofuran-2-ylcarbonyl)amino]cyclohexanecarbonyl]amino]-1-[2-(1H-tetrazol-5-yl)phenyl]piperidin-3-one] |
| 3.12 nM | C[S+]([O-])c1ccccc1N1CCC(NC(=O)C2(NC(=O)c3cc4ccccc4o3)CCCCC2)C(=O)C1 (centres unmarked) [Example 68] |
| 1.59 nM | CC[S+]([O-])c1ccccc1N1CCC(NC(=O)C2(NC(=O)c3cc4ccccc4o3)CCCCC2)C(=O)C1 (centres unmarked) [Example 69] |
| 1.73 nM | CC(C)[S+]([O-])c1ccccc1N1CCC(NC(=O)C2(NC(=O)c3cc4ccccc4o3)CCCCC2)C(=O)C1 (centres unmarked) [Example 70, 4-[N-[1-[N-(benzofuran-2-ylcarbonyl)amino]cyclohexanecarbonyl]amino]-1-(2-isopropylsulfinylphenyl)piperidin-3-one] |
